Consider two compounds from ChEMBL document CHEMBL1128431, “Specific sequestering agents for the actinides. 28. Synthesis and initial evaluation of multidentate 4-carbamoyl-3-hydroxyl-1-methyl-2(1H)-pyridinone ligands for in vivo plutonium(IV) chelation” (1995).

In assay [1] the test system is Mus musculus. The experiment in a line: Percent of Pu(IV) retained after 24 hours in whole body of mice under the effect of 30 umol/kg (i.p.) of ligand administered 1 hr after iv injection of Pu(IV) citrate. It counts as functional.
Assay [2] deals with Mus musculus. Put plainly: Percent of Pu(IV) retained after 24 hours in liver of mice under the effect of 30 umol/kg (i.p.) of ligand administered 1 hr after iv injection of Pu(IV) citrate. The class given is functional.
The test system of assay [3] is Mus musculus. Put plainly: Percent of Pu(IV) retained after 24 hours in soft tissue of mice under the effect of 30 umol/kg (i.p.) of ligand administered 1 hr after iv injection of Pu(IV) citrate. The class given is functional.
The test system of assay [4] is Mus musculus. The experiment in a line: %Pu(IV) excreted after 24 hr in GI contents and feces under the effect of 30uM/kg(po, gastric intubation) of ligand administered 3 min after iv injection of Pu(IV) citrate. The class given is functional.
Assay [5] concerns Mus musculus. Put plainly: Percent of Pu(IV) retained after 24 hours in skeleton of mice under the effect of 30 umol/kg (i.p.) of ligand administered 1 hr after iv injection of Pu(IV) citrate. It counts as functional.
The subject of assay [6] is Mus musculus. Put plainly: % Pu(IV) excreted at 0-4 hr in urine under the effect of 30uM/kg(po, gastric intubation) of ligand administered 3 min after iv injection of Pu(IV) citrate. It counts as functional.
Assay [7] has as its system Mus musculus. The experiment in a line: % Pu(IV) retained after 24 hr in whole body of mice under the effect of 30uM/kg(po, gastric intubation) of ligand administered 3 min after iv injection of Pu(IV) citrate. It counts as functional.
The subject of assay [8] is Mus musculus. Put plainly: % Pu(IV) retained after 24 hours in soft tissue of mice under the effect of 30uM/kg(po, gastric intubation) of ligand administered 3 min after iv injection of Pu(IV) citrate. It counts as functional.
Assay [9] has as its system Mus musculus. The experiment in a line: Percent of Pu(IV) excreted after 24 hours in GI contents and feces under the effect of 30 umol/kg (i.p.) of ligand administered 1 hr after iv injection of Pu(IV) citrate. The class given is functional.
For assay [10], the system named is Mus musculus. The experiment in a line: Percent of Pu(IV) retained after 24 hours in kidneys of mice under the effect of 30 umol/kg (i.p.) of ligand administered 1 hr after iv injection of Pu(IV) citrate. The class given is functional, Kidney.
In assay [11] the test system is Mus musculus. Put plainly: % Pu(IV) excreted at 4-24 hr in urine under the effect of 30uM/kg(po, gastric intubation) of ligand administered 3 min after iv injection of Pu(IV) citrate.
In assay [12] the test system is Mus musculus. The experiment in a line: % Pu(IV) retained after 24 hours in liver of mice under the effect of 30uM/kg(po, gastric intubation) of ligand administered 3 min after iv injection of Pu(IV) citrate. It counts as functional.
The test system of assay [13] is Mus musculus. The experiment in a line: % Pu(IV) retained after 24 hours in skeleton of mice under the effect of 30uM/kg(po, gastric intubation) of ligand administered 3 min after iv injection of Pu(IV) citrate. It counts as functional.
Assay [14] concerns Mus musculus. The experiment in a line: Percent of Pu(IV) excreted after 24 hours in urine under the effect of 30 umol/kg (i.p.) of ligand administered 1 hr after iv injection of Pu(IV) citrate. The class given is functional.
For assay [15], the system named is Mus musculus. The experiment in a line: % Pu(IV) retained after 24 hours in kidneys of mice under the effect of 30uM/kg(po, gastric intubation) of ligand administered 3 min after iv injection of Pu(IV) citrate. The class given is functional, Kidney.

`Cn1ccc(C(=O)NCc2cc(CNC(=O)c3ccn(C)c(=O)c3O)cc(CNC(=O)c3ccn(C)c(=O)c3O)c2)c(O)c1=O`: the ID with Mus musculus [1] is reported as 22%; in the assay on Mus musculus [2], 6.1%; in the assay with Mus musculus [3], 3%; with Mus musculus [4], 5.2%; in the assay with Mus musculus [5] it was 12%; with Mus musculus [6] it was 6.4%. Besides, the ID with Mus musculus [7] was 82%; in the assay with Mus musculus [8], 7.5%; in the assay with Mus musculus [9], 70%; in the assay with Mus musculus [10], 0.9%; in the assay with Mus musculus [11], 6%; in the assay on Mus musculus [12] it was 40%. Besides, the ID in the assay on Mus musculus [13] was found to be 34%; in the assay on Mus musculus [14] it was 8%; with Mus musculus [15], 1.2%.
On to `Cn1ccc(C(=O)NCCCCCCNC(=O)c2ccn(C)c(=O)c2O)c(O)c1=O`, for which the ID in the assay with Mus musculus [1] is reported as 23%; with Mus musculus [2], 6.5%; in the assay with Mus musculus [3], 3.7%; in the assay with Mus musculus [4], 9.8%; in the assay on Mus musculus [5], 12%; in the assay with Mus musculus [6], 7.3%. Moreover, the ID in the assay on Mus musculus [7] turned out to be 76%; with Mus musculus [8], 6.2%; in the assay with Mus musculus [9], 63%; in the assay on Mus musculus [10], 0.5%; in the assay with Mus musculus [11], 6.9%; with Mus musculus [12], 44%. For the same compound, the values for the ID in the assay on Mus musculus [13], in the assay on Mus musculus [14] and with Mus musculus [15] were 25%, 14% and 0.6%, respectively.
